Biological target: T1, catalytic domain of human PARP14 (residues 1611 to 1801) with NanoLuc tag (Homo sapiens, UniProt Q460N5)
T1 construct: expressed in transfected cells; host or cells: HEK-293T cells (ATCC), pcDNA3.1(-) vector
T1 sequence (Q460N5 1611-1801): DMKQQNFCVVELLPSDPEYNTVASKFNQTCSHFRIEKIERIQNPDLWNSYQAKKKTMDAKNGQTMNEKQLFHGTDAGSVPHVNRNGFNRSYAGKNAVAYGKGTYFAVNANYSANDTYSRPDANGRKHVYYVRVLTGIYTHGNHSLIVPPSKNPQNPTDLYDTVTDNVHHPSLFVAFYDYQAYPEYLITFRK
Test: NanoLuc assay for the degradation of PARP14 (NanoLuc-tagged PARP14 overexpressed in HEK-293T cells, 2 hours)
Type: cell-based
Conditions: Assay A (Example A): NanoLuc-tagged PARP14 degradation in HEK-293T cells, read-out: DC50

Row | Structure (SMILES) | DC50 [nM]
1 | O=C1CCC(N2Cc3cc(N4CCN(CCN5CCC(COc6cc(F)c7c(=O)[nH]c(CSC8CCOCC8)nc7c6)CC5)CC4)ccc3C2=O)C(=O)N1 (centres unmarked) [Example 59, 3-(5-(4-(2-(4-(((5-fluoro-4-oxo-2-(((tetrahydro-2H-pyran-4-yl)thio)methyl)-3,4-dihydroquinazolin-7-yl)oxy)methyl)piperidin-1-yl)ethyl)piperazin-1-yl)-1-oxoisoindolin-2-yl)piperidine-2,6-dione] | < 100
2 | O=C1CCC(N2Cc3c(cccc3N3CCN(CCN4CCC(COc5cc(F)c6c(=O)[nH]c(CSC7CCOCC7)nc6c5)CC4)CC3)C2=O)C(=O)N1 (centres unmarked) [Example 60, 3-(4-(4-(2-(4-(((5-fluoro-4-oxo-2-(((tetrahydro-2H-pyran-4-yl)thio)methyl)-3,4-dihydroquinazolin-7-yl)oxy)methyl)piperidin-1-yl)ethyl)piperazin-1-yl)-1-oxoisoindolin-2-yl)piperidine-2,6-dione] | < 100
3 | O=C1CCC(N2C(=O)c3cccc(N4CCN(CCN5CCC(COc6cc(F)c7c(=O)[nH]c(CSC8CCOCC8)nc7c6)CC5)CC4)c3C2=O)C(=O)N1 (centres unmarked) [Example 61, 2-(2,6-dioxopiperidin-3-yl)-4-(4-(2-(4-(((5-fluoro-4-oxo-2-(((tetrahydro-2H-pyran-4-yl)thio)methyl)-3,4-dihydroquinazolin-7-yl)oxy)methyl)piperidin-1-yl)ethyl)piperazin-1-yl)isoindoline-1,3-dione] | < 100
4 | O=C1CCC(N2C(=O)c3ccc(N4CCN(CCN5CCC(COc6cc(F)c7c(=O)[nH]c(CSC8CCOCC8)nc7c6)CC5)CC4)cc3C2=O)C(=O)N1 (centres unmarked) [Example 62, 2-(2,6-dioxopiperidin-3-yl)-5-(4-(2-(4-(((5-fluoro-4-oxo-2-(((tetrahydro-2H-pyran-4-yl)thio)methyl)-3,4-dihydroquinazolin-7-yl)oxy)methyl)piperidin-1-yl)ethyl)piperazin-1-yl)isoindoline-1,3-dione] | < 100
5 | O=C1CCC(Nc2cccc(N3CCN(CCN4CCC(COc5cc(F)c6c(=O)[nH]c(CSC7CCOCC7)nc6c5)CC4)CC3)c2)C(=O)N1 (centres unmarked) [Example 63, 3-((3-(4-(2-(4-(((5-fluoro-4-oxo-2-(((tetrahydro-2H-pyran-4-yl)thio)methyl)-3,4-dihydroquinazolin-7-yl)oxy)methyl)piperidin-1-yl)ethyl)piperazin-1-yl)phenyl)amino)piperidine-2,6-dione] | < 100
6 | O=C1CCC(Oc2ccc(N3CCN(CCN4CCC(COc5cc(F)c6c(=O)[nH]c(CSC7CCOCC7)nc6c5)CC4)CC3)cc2)C(=O)N1 (centres unmarked) [Example 65, 3-(4-(4-(2-(4-(((5-fluoro-4-oxo-2-(((tetrahydro-2H-pyran-4-yl)thio)methyl)-3,4-dihydroquinazolin-7-yl)oxy)methyl)piperidin-1-yl)ethyl)piperazin-1-yl)phenoxy)piperidine-2,6-dione] | < 100
7 | CN(c1ccc(N2CCN(CCN3CCC(COc4cc(F)c5c(=O)[nH]c(CSC6CCOCC6)nc5c4)CC3)CC2)cc1)C1CCC(=O)NC1=O (centres unmarked) [Example 66, 3-((4-(4-(2-(4-(((5-fluoro-4-oxo-2-(((tetrahydro-2H-pyran-4-yl)thio)methyl)-3,4-dihydroquinazolin-7-yl)oxy)methyl)piperidin-1-yl)ethyl)piperazin-1-yl)phenyl)(methyl)amino)piperidine-2,6-dione] | < 100
8 | O=C1CCC(Nc2cccc(C3CCN(CCN4CCC(COc5cc(F)c6c(=O)[nH]c(CSC7CCOCC7)nc6c5)CC4)CC3)c2)C(=O)N1 (centres unmarked) [Example 67, 3-((3-(1-(2-(4-(((5-fluoro-4-oxo-2-(((tetrahydro-2H-pyran-4-yl)thio)methyl)-3,4-dihydroquinazolin-7-yl)oxy)methyl)piperidin-1-yl)ethyl)piperidin-4-yl)phenyl)amino)piperidine-2,6-dione] | < 100
9 | O=C1CCC(Nc2ccc(N3CCN(CCN4CCC(COc5cc(F)c6c(=O)[nH]c(COC7CCOCC7)nc6c5)CC4)CC3)cc2)C(=O)N1 (centres unmarked) [Example 68, 3-((4-(4-(2-(4-(((5-fluoro-4-oxo-2-(((tetrahydro-2H-pyran-4-yl)oxy)methyl)-3,4-dihydroquinazolin-7-yl)oxy)methyl)piperidin-1-yl)ethyl)piperazin-1-yl)phenyl)amino)piperidine-2,6-dione] | < 100
10 | O=C1CCC(Nc2ccc(N3CCN(CCN4CCC(COc5cc(F)c6c(=O)[nH]c(CSC7CCOCC7)nc6c5)CC4)CC3)nc2)C(=O)N1 (centres unmarked) [Example 69, 3-((6-(4-(2-(4-(((5-fluoro-4-oxo-2-(((tetrahydro-2H-pyran-4-yl)thio)methyl)-3,4-dihydroquinazolin-7-yl)oxy)methyl)piperidin-1-yl)ethyl)piperazin-1-yl)pyridin-3-yl)amino)piperidine-2,6-dione] | < 100
11 | O=C1CCN(c2ccc(N3CCN(CCN4CCC(COc5cc(F)c6c(=O)[nH]c(CSC7CCOCC7)nc6c5)CC4)CC3)cc2)C(=O)N1 [Example 70, 1-(4-(4-(2-(4-(((5-fluoro-4-oxo-2-(((tetrahydro-2H-pyran-4-yl)thio)methyl)-3,4-dihydroquinazolin-7-yl)oxy)methyl)piperidin-1-yl)ethyl)piperazin-1-yl)phenyl)dihydropyrimidine-2,4(1H,3H)-dione] | < 100
12 | O=C1CCC(Nc2ccc(N3C4CC3CN(CCN3CCC(COc5cc(F)c6c(=O)[nH]c(CSC7CCOCC7)nc6c5)CC3)C4)cc2)C(=O)N1 (centres unmarked) [Example 71, 3-((4-(3-(2-(4-(((5-fluoro-4-oxo-2-(((tetrahydro-2H-pyran-4-yl)thio)methyl)-3,4-dihydroquinazolin-7-yl)oxy)methyl)piperidin-1-yl)ethyl)-3,6-diazabicyclo[3.1.1]heptan-6-yl)phenyl)amino)piperidine-2,6-dione] | < 100
13 | O=C1CCC(N2C(=O)c3ccc(C#CC4CCN(CCN5CCC(COc6cc(F)c7c(=O)[nH]c(CSC8CCOCC8)nc7c6)CC5)CC4)cc3C2=O)C(=O)N1 (centres unmarked) [Example 72, 2-(2,6-dioxopiperidin-3-yl)-5-((1-(2-(4-(((5-fluoro-4-oxo-2-(((tetrahydro-2H-pyran-4-yl)thio)methyl)-3,4-dihydroquinazolin-7-yl)oxy)methyl)piperidin-1-yl)ethyl)piperidin-4-yl)ethynyl)isoindoline-1,3-dione] | < 100
14 | O=C1CCC(Nc2ccc(N3CC4CC(C3)N4CCN3CCC(COc4cc(F)c5c(=O)[nH]c(CSC6CCOCC6)nc5c4)CC3)cc2)C(=O)N1 (centres unmarked) [Example 73, 3-((4-(6-(2-(4-(((5-fluoro-4-oxo-2-(((tetrahydro-2H-pyran-4-yl)thio)methyl)-3,4-dihydroquinazolin-7-yl)oxy)methyl)piperidin-1-yl)ethyl)-3,6-diazabicyclo[3.1.1]heptan-3-yl)phenyl)amino)piperidine-2,6-dione] | < 100
15 | Cn1nc(N2CCC(=O)NC2=O)c2ccc(C3CCN(CCN4CCC(COc5cc(F)c6c(=O)[nH]c(CSC7CCOCC7)nc6c5)CC4)CC3)cc21 [Example 74, 1-(6-(1-(2-(4-(((5-fluoro-4-oxo-2-(((tetrahydro-2H-pyran-4-yl)thio)methyl)-3,4-dihydroquinazolin-7-yl)oxy)methyl)piperidin-1-yl)ethyl)piperidin-4-yl)-1-methyl-1H-indazol-3-yl)dihydropyrimidine-2,4(1H,3H)-dione] | < 100
16 | Cn1nc(N2CCC(=O)NC2=O)c2ccc(N3CCN(CCN4CCC(COc5cc(F)c6c(=O)[nH]c(CSC7CCOCC7)nc6c5)CC4)CC3)cc21 [Example 75, 1-(6-(4-(2-(4-(((5-fluoro-4-oxo-2-(((tetrahydro-2H-pyran-4-yl)thio)methyl)-3,4-dihydroquinazolin-7-yl)oxy)methyl)piperidin-1-yl)ethyl)piperazin-1-yl)-1-methyl-1H-indazol-3-yl)dihydropyrimidine-2,4(1H,3H)-dione] | < 100
17 | O=C1CCC(Nc2ccc(O[C@@H]3C[C@@H]4CN(CCN5CCC(COc6cc(F)c7c(=O)[nH]c(CSC8CCOCC8)nc7c6)CC5)C[C@@H]4C3)cc2)C(=O)N1 (stereo partly drawn) [Example 76, 3-((4-(((3aR,51,6aS)-2-(2-(4-(((5-fluoro-4-oxo-2-(((tetrahydro-2H-pyran-4-yl)thio)methyl)-3,4-dihydroquinazolin-7-yl)oxy)methyl)piperidin-1-yl)ethyl)octahydrocyclopenta[c]pyrrol-5-yl)oxy)phenyl)amino)piperidine-2,6-dione] | < 100
18 | O=C1CCN(c2ccc(C3CCN(CCN4CCC(COc5cc(F)c6c(=O)[nH]c(CSC7CCOCC7)nc6c5)CC4)CC3)cc2)C(=O)N1 [Example 77, 1-(4-(1-(2-(4-(((5-fluoro-4-oxo-2-(((tetrahydro-2H-pyran-4-yl)thio)methyl)-3,4-dihydroquinazolin-7-yl)oxy)methyl)piperidin-1-yl)ethyl)piperidin-4-yl)phenyl)dihydropyrimidine-2,4(1H,3H)-dione] | < 100
19 | Cn1c(=O)n(C2CCC(=O)NC2=O)c2ccc(C3CCN(CCN4CCC(COc5cc(F)c6c(=O)[nH]c(CSC7CCOCC7)nc6c5)CC4)CC3)cc21 (centres unmarked) [Example 78, 3-(5-(1-(2-(4-(((5-fluoro-4-oxo-2-(((tetrahydro-2H-pyran-4-yl)thio)methyl)-3,4-dihydroquinazolin-7-yl)oxy)methyl)piperidin-1-yl)ethyl)piperidin-4-yl)-3-methyl-2-oxo-2,3-dihydro-1H-benzo[d]imidazol-1-yl)piperidine-2,6-dione] | < 100
20 | O=C1CCC(N2C(=O)c3ccc(OC4CC(CN5CCC(COc6cc(F)c7c(=O)[nH]c(CSC8CCOCC8)nc7c6)CC5)C4)cc3C2=O)C(=O)N1 (centres unmarked) [Example 79a, 2-(2,6-dioxopiperidin-3-yl)-5-((1r,3r)-3-((4-(((5-fluoro-4-oxo-2-(((tetrahydro-2H-pyran-4-yl)thio)methyl)-3,4-dihydroquinazolin-7-yl)oxy)methyl)piperidin-1-yl)methyl)cyclobutoxy)isoindoline-1,3-dione] | < 100

Reference: patent publication US20240101540A1, “TARGETED PROTEIN DEGRADATION OF PARP14 FOR USE IN THERAPY” (Ribon Therapeutics, Inc., priority 2022, published 2024)
